Assay results taken from patent US20260266848A1, “COMPOSITIONS AND METHODS FOR DIAGNOSING AND TREATING DYSTONIA” (Duke University, priority 2023, published 2026).

System: WT MEF EVs
Experiment: Quantitative LC-MS/MS proteomics of EVs from ISRIB-treated WT MEF cultures
Format: cell-based, mouse

O=C(COc1ccc(Cl)cc1)NC1CCC(NC(=O)COc2ccc(Cl)cc2)CC1 (centres unmarked) [ISRIB, reference compound]
Hnrnpc (HNRNPC) EV abundance Log2_FC (WT+ISRIB/WT, 50 nM, 24 h): 1.478
Ipo9 (IPO9) EV abundance Cohen's d (WT+ISRIB/WT, 50 nM, 24 h): −0.4661
Ipo9 (IPO9) EV abundance Log2_FC (WT+ISRIB/WT, 50 nM, 24 h): −0.5386
Jam3 (JAM3) EV abundance Cohen's d (WT+ISRIB/WT, 50 nM, 24 h): −0.3267
Jam3 (JAM3) EV abundance Log2_FC (WT+ISRIB/WT, 50 nM, 24 h): 0.373
Lipg (LIPG) EV abundance Cohen's d (WT+ISRIB/WT, 50 nM, 24 h): 0.7395
Lipg (LIPG) EV abundance Log2_FC (WT+ISRIB/WT, 50 nM, 24 h): −0.3639
Lrrc59 (LRRC59) EV abundance Cohen's d (WT+ISRIB/WT, 50 nM, 24 h): −0.6884
Lrrc59 (LRRC59) EV abundance Log2_FC (WT+ISRIB/WT, 50 nM, 24 h): 0.3431
Mapk3 (MAPK3) EV abundance Cohen's d (WT+ISRIB/WT, 50 nM, 24 h): −0.8739
Mapk3 (MAPK3) EV abundance Log2_FC (WT+ISRIB/WT, 50 nM, 24 h): −0.163
Mars (MARS1) EV abundance Cohen's d (WT+ISRIB/WT, 50 nM, 24 h): 0.05955
Mars (MARS1) EV abundance Log2_FC (WT+ISRIB/WT, 50 nM, 24 h): −0.3717
Mrc2 (MRC2) EV abundance Cohen's d (WT+ISRIB/WT, 50 nM, 24 h): 0.2117
Mrc2 (MRC2) EV abundance Log2_FC (WT+ISRIB/WT, 50 nM, 24 h): −0.2942
Myh9 (MYH9) EV abundance Cohen's d (WT+ISRIB/WT, 50 nM, 24 h): −0.02365
Myh9 (MYH9) EV abundance Log2_FC (WT+ISRIB/WT, 50 nM, 24 h): 0.05232
Ndnf (NDNF) EV abundance Cohen's d (WT+ISRIB/WT, 50 nM, 24 h): 1.071
Ndnf (NDNF) EV abundance Log2_FC (WT+ISRIB/WT, 50 nM, 24 h): −0.1375
Pcmt1 (PCMT1) EV abundance Cohen's d (WT+ISRIB/WT, 50 nM, 24 h): −0.8553
Pcmt1 (PCMT1) EV abundance Log2_FC (WT+ISRIB/WT, 50 nM, 24 h): −0.06624
Pi4ka (PI4KA) EV abundance Cohen's d (WT+ISRIB/WT, 50 nM, 24 h): −0.4893
Pi4ka (PI4KA) EV abundance Log2_FC (WT+ISRIB/WT, 50 nM, 24 h): 0.3826
Pitpnb (PITPNB) EV abundance Cohen's d (WT+ISRIB/WT, 50 nM, 24 h): −1.114
Pitpnb (PITPNB) EV abundance Log2_FC (WT+ISRIB/WT, 50 nM, 24 h): 1.461
Prpsap2 (PRPSAP2) EV abundance Cohen's d (WT+ISRIB/WT, 50 nM, 24 h): 0.2158
Prpsap2 (PRPSAP2) EV abundance Log2_FC (WT+ISRIB/WT, 50 nM, 24 h): −0.6725
Psmc5 (PSMC5) EV abundance Cohen's d (WT+ISRIB/WT, 50 nM, 24 h): 0.4267
Psmc5 (PSMC5) EV abundance Log2_FC (WT+ISRIB/WT, 50 nM, 24 h): −0.3622
Psmd12 (PSMD12) EV abundance Cohen's d (WT+ISRIB/WT, 50 nM, 24 h): 0.00373
Psmd12 (PSMD12) EV abundance Log2_FC (WT+ISRIB/WT, 50 nM, 24 h): −0.3805
Psme4 (PSME4) EV abundance Cohen's d (WT+ISRIB/WT, 50 nM, 24 h): −0.8162
Psme4 (PSME4) EV abundance Log2_FC (WT+ISRIB/WT, 50 nM, 24 h): −0.7974
Ptma (PTMA) EV abundance Cohen's d (WT+ISRIB/WT, 50 nM, 24 h): 0.6355
Ptma (PTMA) EV abundance Log2_FC (WT+ISRIB/WT, 50 nM, 24 h): 2.638
Rap2b (RAP2B) EV abundance Cohen's d (WT+ISRIB/WT, 50 nM, 24 h): 0.3788
Rap2b (RAP2B) EV abundance Log2_FC (WT+ISRIB/WT, 50 nM, 24 h): −0.1245
Rbm3 (RBM3) EV abundance Cohen's d (WT+ISRIB/WT, 50 nM, 24 h): −0.3159
Rbm3 (RBM3) EV abundance Log2_FC (WT+ISRIB/WT, 50 nM, 24 h): 0.2028
Rhoa (RHOA) EV abundance Cohen's d (WT+ISRIB/WT, 50 nM, 24 h): −1.25
Rhoa (RHOA) EV abundance Log2_FC (WT+ISRIB/WT, 50 nM, 24 h): −0.00598
Rpl10 (RPL10) EV abundance Cohen's d (WT+ISRIB/WT, 50 nM, 24 h): −0.35
Rpl10 (RPL10) EV abundance Log2_FC (WT+ISRIB/WT, 50 nM, 24 h): 0.00077
Rpl13a (RPL13A) EV abundance Cohen's d (WT+ISRIB/WT, 50 nM, 24 h): 0.3123
Rpl13a (RPL13A) EV abundance Log2_FC (WT+ISRIB/WT, 50 nM, 24 h): 0.04217
Rps13 (RPS13) EV abundance Cohen's d (WT+ISRIB/WT, 50 nM, 24 h): −0.2269
Rps13 (RPS13) EV abundance Log2_FC (WT+ISRIB/WT, 50 nM, 24 h): 0.2809
Sec31a (SEC31A) EV abundance Cohen's d (WT+ISRIB/WT, 50 nM, 24 h): −0.3764
Sec31a (SEC31A) EV abundance Log2_FC (WT+ISRIB/WT, 50 nM, 24 h): −0.2838
Slc2a1 (SLC2A1) EV abundance Cohen's d (WT+ISRIB/WT, 50 nM, 24 h): −0.34
Slc2a1 (SLC2A1) EV abundance Log2_FC (WT+ISRIB/WT, 50 nM, 24 h): 0.08012
Stom (STOM) EV abundance Cohen's d (WT+ISRIB/WT, 50 nM, 24 h): −0.7279
Stom (STOM) EV abundance Log2_FC (WT+ISRIB/WT, 50 nM, 24 h): 0.1135
Tardbp (TARDBP) EV abundance Cohen's d (WT+ISRIB/WT, 50 nM, 24 h): −0.3087
Tardbp (TARDBP) EV abundance Log2_FC (WT+ISRIB/WT, 50 nM, 24 h): −0.06285
Tgfb2 (TGFB2) EV abundance Cohen's d (WT+ISRIB/WT, 50 nM, 24 h): 0.6984
Tgfb2 (TGFB2) EV abundance Log2_FC (WT+ISRIB/WT, 50 nM, 24 h): −0.319
Tln1 (TLN1) EV abundance Cohen's d (WT+ISRIB/WT, 50 nM, 24 h): −0.39
Tln1 (TLN1) EV abundance Log2_FC (WT+ISRIB/WT, 50 nM, 24 h): −0.05074
Tln2 (TLN2) EV abundance Cohen's d (WT+ISRIB/WT, 50 nM, 24 h): −0.7484
Tln2 (TLN2) EV abundance Log2_FC (WT+ISRIB/WT, 50 nM, 24 h): −0.02524
Tubb1 (TUBB1) EV abundance Cohen's d (WT+ISRIB/WT, 50 nM, 24 h): 0.3005
Tubb1 (TUBB1) EV abundance Log2_FC (WT+ISRIB/WT, 50 nM, 24 h): 0.1945
Usp7 (USP7) EV abundance Cohen's d (WT+ISRIB/WT, 50 nM, 24 h): −0.3328
Usp7 (USP7) EV abundance Log2_FC (WT+ISRIB/WT, 50 nM, 24 h): −0.8347
Wdr26 (WDR26) EV abundance Cohen's d (WT+ISRIB/WT, 50 nM, 24 h): −0.2688
Wdr26 (WDR26) EV abundance Log2_FC (WT+ISRIB/WT, 50 nM, 24 h): −0.05756
Zyx (ZYX) EV abundance Cohen's d (WT+ISRIB/WT, 50 nM, 24 h): −0.131
Zyx (ZYX) EV abundance Log2_FC (WT+ISRIB/WT, 50 nM, 24 h): 0.1801
Pearson r between DYT genotype effects and ISRIB effects (entire proteome): 0.37
Pearson r between DYT genotype effects and ISRIB effects (genotype-disrupted proteins): 0.40
